Assay results as given in patent US9365522B2, “Pyrazole amide derivative” (AMGEN INC., priority 2015, dated 2016).

Target: T1, ligand binding domain of human ROR gamma (Homo sapiens, UniProt P51449)
T1 construct: NM_001001523; expressed in transfected cells; host or cells: HEK293T
T1 sequence (P51449 247-497 isoform P51449-2): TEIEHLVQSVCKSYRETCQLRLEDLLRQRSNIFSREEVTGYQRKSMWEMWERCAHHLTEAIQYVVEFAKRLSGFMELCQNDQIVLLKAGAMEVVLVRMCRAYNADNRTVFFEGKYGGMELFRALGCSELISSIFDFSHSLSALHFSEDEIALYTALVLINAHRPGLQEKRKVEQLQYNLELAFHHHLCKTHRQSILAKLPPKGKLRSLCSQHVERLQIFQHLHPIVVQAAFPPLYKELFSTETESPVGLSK
Assay: ROR gamma reporter gene assay (GAL4-RORγ LBD luciferase, Dual-Glo)
Type: cell-based
Settings: HEK293T cells transfected with pM-ROR gamma, 8 concentrations 3.5 nM to 10.5 μM, 24 h incubation; read-out: result (pIC50, inhibition of RORγ transcriptional activity) (converted)
Summary of the method: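 HEK293T cells were co-transfected with GAL4 DBD fused to human RORγ LBD (aa 247-497), a 5×UAS firefly luciferase reporter and CMV-driven renilla luciferase, in medium with 10% charcoal-stripped FBS.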

Structure (SMILES) | IC50 [pM]
O=C(CN(Cc1csc(Cl)n1)C(=O)c1cnn([C@H]2CC[C@H](C(=O)O)CC2)c1C(F)(F)F)c1c(Cl)cncc1Cl [Example 167, trans-4-(4-((2-chloro-1,3-thiazol-4-yl)methyl-(2-(3,5-dichloropyridin-4-yl)-2-oxoethyl)carbamoyl)-5-(trifluoromethyl)pyrazol-1-yl)cyclohexane-1-carboxylic acid] | 331000
O=C(CN(Cc1ncc(Cl)s1)C(=O)c1cnn([C@H]2CC[C@H](C(=O)O)CC2)c1C(F)(F)F)c1c(Cl)cncc1Cl [Example 168, trans-4-(4-((5-chloro-1,3-thiazol-2-yl)methyl-(2-(3,5-dichloropyridin-4-yl)-2-oxoethyl)carbamoyl)-5-(trifluoromethyl)pyrazol-1-yl)cyclohexane-1-carboxylic acid] | 148000
N#Cc1cccc(CN(CC(=O)c2c(Cl)cncc2Cl)C(=O)c2cnn([C@H]3CC[C@H](C(=O)O)CC3)c2C(F)(F)F)c1 [Example 170, trans-4-(4-((3-cyanophenyl)methyl-(2-(3,5-dichloropyridin-4-yl)-2-oxoethyl)carbamoyl)-5-(trifluoromethyl)pyrazol-1-yl)cyclohexane-1-carboxylic acid] | 178000
N#Cc1ccc(CN(CC(=O)c2c(Cl)cncc2Cl)C(=O)c2cnn([C@H]3CC[C@H](C(=O)O)CC3)c2C(F)(F)F)cc1 [Example 171, trans-4-(4-((4-cyanophenyl)methyl-(2-(3,5-dichloropyridin-4-yl)-2-oxoethyl)carbamoyl)-5-(trifluoromethyl)pyrazol-1-yl)cyclohexane-1-carboxylic acid] | 166000
CC(C)(C)C(=O)N1CC(N(CC(=O)c2c(Cl)cncc2Cl)C(=O)c2cnn([C@H]3CC[C@H](C(=O)O)CC3)c2C(F)(F)F)C1 [Example 173, trans-4-(4-((2-(3,5-dichloropyridin-4-yl)-2-oxoethyl)-(1-(2,2-dimethylpropanoyl)azetidin-3-yl)carbamoyl)-5-(trifluoromethyl)pyrazol-1-yl)cyclohexane-1-carboxylic acid] | > 1e+07
O=C(CN(Cc1ccc(F)cc1)C(=O)c1cnn(C23CCC(C(=O)O)(CC2)C3)c1C(F)(F)F)c1c(Cl)cncc1Cl [Example 177, 4-(4-((2-(3,5-dichloropyridin-4-yl)-2-oxoethyl)-((4-fluorophenyl)methyl)carbamoyl)-5-(trifluoromethyl)pyrazol-1-yl)bicyclo[2.2.1]heptane-1-carboxylic acid] | 141000
C[C@]1(C(=O)O)CC[C@H](n2ncc(C(=O)N(CC(=O)c3c(Cl)cncc3Cl)Cc3cc(F)cc(F)c3)c2C(F)F)CC1 [Example 178, trans-4-(4-((2-(3,5-dichloropyridin-4-yl)-2-oxoethyl)-((3,5-difluorophenyl)methyl)carbamoyl)-5-(difluoromethyl)pyrazol-1-yl)-1-methylcyclohexane-1-carboxylic acid] | 4.37e+06
O=C(CN(Cc1cc(F)cc(F)c1)C(=O)c1cnn([C@H]2CC[C@H](C(=O)O)CC2)c1C(F)(F)F)c1c(F)cc(F)cc1Cl [Example 179, trans-4-(4-((2-(2-chloro-4,6-difluorophenyl)-2-oxoethyl)-((3,5-difluorophenyl)methyl)carbamoyl)-5-(trifluoromethyl)pyrazol-1-yl)cyclohexane-1-carboxylic acid] | 52500
CC(C)(C)CN(CC(=O)c1c(Cl)cncc1Cl)C(=O)c1cnn([C@H]2CC[C@](C)(C(=O)O)CC2)c1C(F)(F)F [Example 186, trans-4-(4-((2-(3,5-dichloropyridin-4-yl)-2-oxoethyl)-(2,2-dimethylpropyl)carbamoyl)-5-(trifluoromethyl)pyrazol-1-yl)-1-methylcyclohexane-1-carboxylic acid] | 26900
CC(C1CCCC1)N(CC(=O)c1c(Cl)cncc1Cl)C(=O)c1cnn([C@H]2CC[C@H](C(=O)O)CC2)c1C(F)(F)F (stereo partly drawn) [Example 187, trans-4-(4-(1-cyclopentylethyl-(2-(3,5-dichloropyridin-4-yl)-2-oxoethyl)carbamoyl)-5-(trifluoromethyl)pyrazol-1-yl)cyclohexane-1-carboxylic acid] | 224000
COc1cncc(Cl)c1C(=O)CN(Cc1ccc(F)cc1)C(=O)c1cnn([C@H]2CC[C@H](C(=O)O)CC2)c1C(F)(F)F [Example 188, trans-4-(4-((2-(3-chloro-5-methoxypyridin-4-yl)-2-oxoethyl)-((4-fluorophenyl)methyl)carbamoyl)-5-(trifluoromethyl)pyrazol-1-yl)cyclohexane-1-carboxylic acid] | 275000
CC1(C)CCC(N(CC(=O)c2c(Cl)cc(Cl)cc2Cl)C(=O)c2cnn([C@H]3CC[C@H](C(=O)O)CC3)c2C(F)(F)F)CC1 [Example 189, trans-4-(4-((4,4-dimethylcyclohexyl)-(2-oxo-2-(2,4,6-trichlorophenyl)ethyl)carbamoyl)-5-(trifluoromethyl)pyrazol-1-yl)cyclohexane-1-carboxylic acid] | 30200

Other lines, results leading:

IC50 [pM] | Structure (SMILES)
40700 | CC1(C)CCC(N(CC(=O)c2c(Cl)cncc2Cl)C(=O)c2cnn([C@H]3CC[C@H](C(=O)O)CC3)c2C(F)(F)F)CC1 [Example 169, trans-4-(4-((2-(3,5-dichloropyridin-4-yl)-2-oxoethyl)-(4,4-dimethylcyclohexyl)carbamoyl)-5-(trifluoromethyl)pyrazol-1-yl)cyclohexane-1-carboxylic acid]
> 1e+07 | CC(=O)N1CC(N(CC(=O)c2c(Cl)cncc2Cl)C(=O)c2cnn([C@H]3CC[C@H](C(=O)O)CC3)c2C(F)(F)F)C1 [Example 172, trans-4-(4-((1-acetylazetidin-3-yl)-(2-(3,5-dichloropyridin-4-yl)-2-oxoethyl)carbamoyl)-5-(trifluoromethyl)pyrazol-1-yl)cyclohexane-1-carboxylic acid]
661000 | O=C(CN(C(=O)c1cnn([C@H]2CC[C@H](C(=O)O)CC2)c1C(F)(F)F)C1CCCCC1)c1c(Cl)cncc1Cl [Example 174, trans-4-(4-(cyclohexyl-(2-(3,5-dichloropyridin-4-yl)-2-oxoethyl)carbamoyl)-5-(trifluoromethyl)pyrazol-1-yl)cyclohexane-1-carboxylic acid]
603000 | O=C(CN(C(=O)c1cnn([C@H]2CC[C@H](C(=O)O)CC2)c1C(F)(F)F)C1CCC(F)(F)CC1)c1c(Cl)cncc1Cl [Example 175, trans-4-(4-((2-(3,5-dichloropyridin-4-yl)-2-oxoethyl)-(4,4-difluorocyclohexyl)carbamoyl)-5-(trifluoromethyl)pyrazol-1-yl)cyclohexane-1-carboxylic acid]
2.57e+06 | CC(C)(C)O[C@H]1C[C@H](N(CC(=O)c2c(Cl)cncc2Cl)C(=O)c2cnn([C@H]3CC[C@H](C(=O)O)CC3)c2C(F)(F)F)C1 [Example 176, trans-4-(4-((2-(3,5-dichloropyridin-4-yl)-2-oxoethyl)-(3-((2-methylpropan-2-yl)oxy)cyclobutyl)carbamoyl)-5-(trifluoromethyl)pyrazol-1-yl)cyclohexane-1-carboxylic acid]
112000 | O=C(CN(C(=O)c1cnn([C@H]2CC[C@H](C(=O)O)CC2)c1C(F)(F)F)C1Cc2ccccc2C1)c1c(Cl)cncc1Cl [Example 180, trans-4-(4-((2-(3,5-dichloropyridin-4-yl)-2-oxoethyl)-(2,3-dihydro-1H-inden-2-yl)carbamoyl)-5-(trifluoromethyl)pyrazol-1-yl)cyclohexane-1-carboxylic acid]
> 1e+07 | O=C(CN(C(=O)c1cnn([C@H]2CC[C@H](C(=O)O)CC2)c1C(F)(F)F)C1CCOCC1)c1c(Cl)cncc1Cl [Example 181, trans-4-(4-((2-(3,5-dichloropyridin-4-yl)-2-oxoethyl)-(oxan-4-yl)carbamoyl)-5-(trifluoromethyl)pyrazol-1-yl)cyclohexane-1-carboxylic acid]
66100 | O=C(CN(C(=O)c1cnn([C@H]2CC[C@H](C(=O)O)CC2)c1C(F)(F)F)C1CCC2(CC1)CC2)c1c(Cl)cncc1Cl [Example 182, trans-4-(4-((2-(3,5-dichloropyridin-4-yl)-2-oxoethyl)-spiro[2,5]octan-6-ylcarbamoyl)-5-(trifluoromethyl)pyrazol-1-yl)cyclohexane-1-carboxylic acid]
174000 | CC1(C)CC[C@H](N(CC(=O)c2c(Cl)cncc2Cl)C(=O)c2cnn([C@H]3CC[C@H](C(=O)O)CC3)c2C(F)(F)F)C1 [Example 183, trans-4-(4-((2-(3,5-dichloropyridin-4-yl)-2-oxoethyl)-((1S)-3,3-dimethylcyclopentyl)carbamoyl)-5-(trifluoromethyl)pyrazol-1-yl)cyclohexane-1-carboxylic acid]
162000 | CC1(C)CC[C@H](N(CC(=O)c2c(Cl)cncc2Cl)C(=O)c2cnn([C@H]3CC[C@H](C(=O)O)CC3)c2C(F)(F)F)C1 [Example 184, trans-4-(4-((2-(3,5-dichloropyridin-4-yl)-2-oxoethyl)-((1S)-3,3-dimethylcyclopentyl)carbamoyl)-5-(trifluoromethyl)pyrazol-1-yl)cyclohexane-1-carboxylic acid]
1.82e+06 | O=C(CN(C(=O)c1cnn([C@H]2CC[C@H](C(=O)O)CC2)c1C(F)(F)F)C1CCCC1)c1c(Cl)cncc1Cl [Example 185, trans-4-(4-(cyclopentyl-(2-(3,5-dichloropyridin-4-yl)-2-oxoethyl)carbamoyl)-5-(trifluoromethyl)pyrazol-1-yl)cyclohexane-1-carboxylic acid]
